Measured values: PubChem BioAssay (NCI)
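A five-concentration, 48-hour dose response in 96-well plates underlies each endpoint, interpolated linearly between surrounding concentrations. TGI: total growth inhibition.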

Key:
Assay in all cases: NCI tumour cell line growth inhibition, 48 h
HS 578T breast = system: HS 578T breast
HOP-62 NSCLC = system: HOP-62 NSCLC
HOP-92 NSCLC = system: HOP-92 NSCLC
SK-MEL-28 melanoma = system: SK-MEL-28 melanoma
UACC-257 melanoma = system: UACC-257 melanoma
IGROV1 ovarian = system: IGROV1 ovarian
T-47D breast = system: T-47D breast
MDA-MB-231 breast = system: MDA-MB-231 breast
SK-MEL-2 melanoma = system: SK-MEL-2 melanoma
SF-295 CNS = system: SF-295 CNS
KM12 colon = system: KM12 colon
MCF7 breast = system: MCF7 breast
HCT-15 colon = system: HCT-15 colon
PC-3 prostate = system: PC-3 prostate
SF-268 CNS = system: SF-268 CNS
SK-OV-3 ovarian = system: SK-OV-3 ovarian
RXF 393 renal = system: RXF 393 renal
OVCAR-5 ovarian = system: OVCAR-5 ovarian
SN12C renal = system: SN12C renal
OVCAR-3 ovarian = system: OVCAR-3 ovarian
RPMI-8226 leukemia = system: RPMI-8226 leukemia
HCT-116 colon = system: HCT-116 colon
786-0 renal = system: 786-0 renal
MDA-MB-435 = system: MDA-MB-435
SF-539 CNS = system: SF-539 CNS
HT29 colon = system: HT29 colon
HL-60(TB) leukemia = system: HL-60(TB) leukemia
UO-31 renal = system: UO-31 renal
MDA-N = system: MDA-N
ACHN renal = system: ACHN renal
M14 melanoma = system: M14 melanoma
COLO 205 colon = system: COLO 205 colon
MOLT-4 leukemia = system: MOLT-4 leukemia
HCC-2998 colon = system: HCC-2998 colon
U251 CNS = system: U251 CNS
BT-549 breast = system: BT-549 breast
OVCAR-8 ovarian = system: OVCAR-8 ovarian
SNB-19 CNS = system: SNB-19 CNS
NCI-H460 lung = system: NCI-H460 lung
SNB-75 CNS = system: SNB-75 CNS
EKVX NSCLC = system: EKVX NSCLC
NCI-H23 lung = system: NCI-H23 lung
DU-145 prostate = system: DU-145 prostate
UACC-62 melanoma = system: UACC-62 melanoma
K-562 leukemia = system: K-562 leukemia
LOX IMVI melanoma = system: LOX IMVI melanoma
OVCAR-4 ovarian = system: OVCAR-4 ovarian
SR leukemia = system: SR leukemia
A498 renal = system: A498 renal
MALME-3M melanoma = system: MALME-3M melanoma
SK-MEL-5 melanoma = system: SK-MEL-5 melanoma
CCRF-CEM leukemia = system: CCRF-CEM leukemia
SW-620 colon = system: SW-620 colon
A549 NSCLC = system: A549 NSCLC
NCI/ADR-RES ovarian = system: NCI/ADR-RES ovarian
NCI-H522 lung = system: NCI-H522 lung
CAKI-1 renal = system: CAKI-1 renal
NCI-H226 lung = system: NCI-H226 lung
TK-10 renal = system: TK-10 renal

`CCCCC(=O)Nc1ccc2cc(C(=O)OC)c(Cl)nc2n1` gave a TGI (HS 578T breast) of 46.9 µM, a TGI (HOP-62 NSCLC) of 20.6 µM and a TGI (HOP-92 NSCLC) greater than 100 µM. For the same compound, the TGI (SK-MEL-28 melanoma) was greater than 100 µM, the TGI (UACC-257 melanoma) was greater than 100 µM and the TGI (IGROV1 ovarian) was greater than 100 µM. For the same compound, the TGI (T-47D breast) was greater than 72.5 µM, the TGI (MDA-MB-231 breast) was greater than 100 µM and the TGI (SK-MEL-2 melanoma) was greater than 100 µM. It also gave a TGI (SF-295 CNS) greater than 96.7 µM, a TGI (KM12 colon) of 10.1 µM and a TGI (MCF7 breast) greater than 100 µM. The TGI (HCT-15 colon) was greater than 100 µM, the TGI (PC-3 prostate) was greater than 74.3 µM and the TGI (SF-268 CNS) was greater than 100 µM. It also gave a TGI (SK-OV-3 ovarian) greater than 100 µM, a TGI (RXF 393 renal) greater than 100 µM and a TGI (OVCAR-5 ovarian) greater than 100 µM. For the same compound, the TGI (SN12C renal) was greater than 100 µM, the TGI (OVCAR-3 ovarian) was 17.6 µM and the TGI (RPMI-8226 leukemia) was greater than 100 µM. For the same compound, the TGI (HCT-116 colon) was greater than 100 µM, the TGI (786-0 renal) was greater than 100 µM and the TGI (MDA-MB-435) was greater than 100000 nM. For the same compound, the TGI (SF-539 CNS) was greater than 100 µM, the TGI (HT29 colon) was greater than 100 µM and the TGI (HL-60(TB) leukemia) was 6.81 µM. The TGI (UO-31 renal) was 57.7 µM, the TGI (MDA-N) was greater than 100000 nM and the TGI (ACHN renal) was greater than 100 µM. For the same compound, the TGI (M14 melanoma) was greater than 100 µM, the TGI (COLO 205 colon) was greater than 45.3 µM and the TGI (MOLT-4 leukemia) was greater than 100 µM. For the same compound, the TGI (HCC-2998 colon) was 52.7 µM, the TGI (U251 CNS) was greater than 78 µM and the TGI (BT-549 breast) was greater than 100 µM. For the same compound, the TGI (OVCAR-8 ovarian) was greater than 100 µM, the TGI (SNB-19 CNS) was 38 µM and the TGI (NCI-H460 lung) was greater than 100 µM. The TGI (SNB-75 CNS) was greater than 100 µM, the TGI (EKVX NSCLC) was greater than 100 µM and the TGI (NCI-H23 lung) was greater than 100 µM. The TGI (DU-145 prostate) was 10.1 µM, the TGI (UACC-62 melanoma) was greater than 100 µM and the TGI (K-562 leukemia) was greater than 100 µM. The TGI (LOX IMVI melanoma) was greater than 100 µM, the TGI (OVCAR-4 ovarian) was greater than 100 µM and the TGI (SR leukemia) was greater than 100 µM. The TGI (A498 renal) was greater than 100 µM, the TGI (MALME-3M melanoma) was greater than 100 µM and the TGI (SK-MEL-5 melanoma) was greater than 100 µM. The TGI (CCRF-CEM leukemia) was greater than 100 µM, the TGI (SW-620 colon) was greater than 100 µM and the TGI (A549 NSCLC) was greater than 100 µM. It also gave a TGI (NCI/ADR-RES ovarian) greater than 100 µM, a TGI (NCI-H522 lung) greater than 100 µM and a TGI (CAKI-1 renal) greater than 100 µM. The TGI (NCI-H226 lung) was greater than 100 µM and the TGI (TK-10 renal) was greater than 100 µM.
`COc1ccc(OC)c(CCc2cc(OC)ccc2OC)c1` showed a TGI (HS 578T breast) of 7.29 µM, a TGI (HOP-62 NSCLC) greater than 10 µM and a TGI (HOP-92 NSCLC) greater than 10 µM. It also gave a TGI (SK-MEL-28 melanoma) greater than 10 µM, a TGI (UACC-257 melanoma) greater than 10 µM and a TGI (IGROV1 ovarian) greater than 10 µM. For the same compound, the TGI (T-47D breast) was greater than 10 µM, the TGI (MDA-MB-231 breast) was greater than 10 µM and the TGI (SK-MEL-2 melanoma) was greater than 8.88 µM. The TGI (SF-295 CNS) was greater than 7.31 µM, the TGI (KM12 colon) was greater than 10 µM and the TGI (MCF7 breast) was greater than 10 µM. It also gave a TGI (HCT-15 colon) greater than 10 µM, a TGI (PC-3 prostate) greater than 10 µM and a TGI (SF-268 CNS) greater than 10 µM. The TGI (SK-OV-3 ovarian) was greater than 10 µM, the TGI (RXF 393 renal) was greater than 8.51 µM and the TGI (OVCAR-5 ovarian) was greater than 10 µM. It also gave a TGI (SN12C renal) greater than 10 µM, a TGI (OVCAR-3 ovarian) of 2.09 µM and a TGI (RPMI-8226 leukemia) greater than 10 µM. The TGI (HCT-116 colon) was greater than 10 µM, the TGI (786-0 renal) was greater than 10 µM and the TGI (MDA-MB-435) was 490 nM. The TGI (SF-539 CNS) was 4.76 µM, the TGI (HT29 colon) was greater than 10 µM and the TGI (HL-60(TB) leukemia) was 5.28 µM. For the same compound, the TGI (UO-31 renal) was greater than 10 µM, the TGI (MDA-N) was 1640 nM and the TGI (ACHN renal) was greater than 10 µM. The TGI (M14 melanoma) was greater than 10 µM, the TGI (COLO 205 colon) was 4.88 µM and the TGI (MOLT-4 leukemia) was greater than 10 µM. The TGI (HCC-2998 colon) was greater than 10 µM, the TGI (U251 CNS) was greater than 10 µM and the TGI (BT-549 breast) was greater than 10 µM. It also gave a TGI (OVCAR-8 ovarian) greater than 10 µM, a TGI (SNB-19 CNS) greater than 10 µM and a TGI (NCI-H460 lung) greater than 10 µM. It also gave a TGI (SNB-75 CNS) of 9.07 µM, a TGI (EKVX NSCLC) greater than 10 µM and a TGI (NCI-H23 lung) greater than 10 µM. The TGI (DU-145 prostate) was greater than 10 µM, the TGI (UACC-62 melanoma) was greater than 10 µM and the TGI (K-562 leukemia) was greater than 10 µM. For the same compound, the TGI (LOX IMVI melanoma) was greater than 10 µM, the TGI (OVCAR-4 ovarian) was greater than 10 µM and the TGI (SR leukemia) was greater than 10 µM. It also gave a TGI (A498 renal) greater than 10 µM, a TGI (MALME-3M melanoma) greater than 6.95 µM and a TGI (SK-MEL-5 melanoma) greater than 9.35 µM. The TGI (CCRF-CEM leukemia) was greater than 10 µM, the TGI (SW-620 colon) was greater than 10 µM and the TGI (A549 NSCLC) was greater than 10 µM. It also gave a TGI (NCI/ADR-RES ovarian) greater than 6.02 µM, a TGI (NCI-H522 lung) greater than 9.66 µM and a TGI (CAKI-1 renal) greater than 10 µM. The TGI (NCI-H226 lung) was greater than 10 µM and the TGI (TK-10 renal) was greater than 10 µM.
